Measured values published in patent US11773127B2, “Compounds and methods for treating bacterial infections” (Washington University, priority 2017, dated 2023).
Like-named read-outs stand apart in the source and are kept apart here.

Target: T1, FmlHLD (Escherichia coli, UniProt P77588)
T1 construct: 6xHis (C); made in house; host or cells: E. coli C600, periplasm, pTRC99a
Assay: biochemical
Assay type: binding, E. coli
Conditions: for inhibitory potency against FmlH, in words: ELISA-based competition assay; for PI100 (percent inhibition): galactoside at 100 μM
Procedure: Thereafter, wells were incubated with 200 μl blocking buffer (PBS+1% BSA) for 2 hours at 23° C., followed by incubation with 100 μl biotinylated FmlHLD diluted in blocking buffer to 20 μg/ml in the presence or absence of the tested compounds for 1 hr at 23° C. After washing 3× with PBS+0.05% TWEEN-20, 100 μl Streptavidin-HRP conjugate (BD Biosciences; 1:2000 dilution in blocking buffer) was added to each well for 1 hr at 23° C. After a final round of washing, plates were developed with 100 μl Tetramethylbenzidine (TMB, BD Biosciences) substrate, quenched within 1-2 min with 50 μl […], and absorbance measured at 450 nm.
Select top hit compounds and few low-scoring analogs from the virtual screening, as well as synthetic galactosides, were tested in the ELISA-based competition assay for their ability to inhibit binding of FmlHLD to ds-BSM. The ELISA assay was performed using the protocol described in Example 18. […] All compounds were tested at 100 μM; a subset was tested at 10 μM; and the strongest subset was additionally tested at 1 μM. […] Percent inhibition (PI) values are reported as the mean with standard error of the mean for galactosides tested at 100 μM (PI100), 10 μM (PI10), and 1 μM (PI1) in the ELISA-based competition assay. […] The “thio” designation indicates a sulfur linkage between the sugar and the aglycone group, the “phospho” designation indicates a phosphate group attached the C6-hydroxyl group on the sugar, and the “uro” designation indicates galacturonide as the sugar.
The ELISA assay was performed using the protocol described in Example 18. All compounds were tested at 1 μM and a subset was additionally tested at 100 nM. Average percent inhibition (PI) values are reported for compounds tested at 1 μM (PI1) and 100 nM (PI0.1).
Briefly, 1 μg bovine submaxillary mucin (Sigma) in 100 uL PBS were incubated with Immulon 4HBX 96-well plates overnight prior to treatment with 1 mU Arthrobacter ureafaciens sialidase for 1 hour at 37° C. to remove terminal sialic acid sugars. Wells were then blocked with 200 μL PBS+1% BSA for 2 hours at room temperature. Biotinylated FmlH^LD was diluted to 20 μg/mL in blocking buffer and incubated in the presence or absence of compounds serially diluted 2× down eight rows for 1 hour at room temperature. Wells were washed three times with PBS 0.05% TWEEN-20 then incubated with 100 μL of streptavidin-HRP conjugate (BD Biosciences; 1:2,000 dilution in blocking buffer) for one hour. After three additional PBS+0.05% TWEEN washes, plates were developed with 100 μL of tetramethylbenzidine (BD Biosciences) substrate and quenched with 50 μL of 1 M H2SO4. Total bound portion concentration was measured by the absorbance at 450 nm. IC50s were determined using the Graphpad Prism software.
The compounds synthesized herein were tested in the ELISA-based competition assay for their ability to inhibit binding of FmlHLD to ds-BSM. The ELISA assay was performed using the protocol described in Example 18. Compounds were tested at […], 1 μM, and 100 nM. as indicated on the table. […] ND means the corresponding value was not determined for this summary (but may be available elsewhere in the Examples).

[1] = IC50 (μM), Table 5, Gal and GalNAc inhibition of FmlH
[2] = read-out: % Inhibition at [μM] [0.1], compound at 0.1 μM (100 nM), inhibition of FmlHLD binding to ds-BSM
[3] = read-out: % Inhibition at [μM] [1], compound at 1 μM, inhibition of FmlHLD binding to ds-BSM
[4] = read-out: PI (0.1) (average percent inhibition), compound at 100 nM, Table 4
[5] = read-out: PI(1) (average percent inhibition), compound at 1 μM, Table 4
[6] = read-out: % Inhibition at [μM] [10], compound at 10 μM, inhibition of FmlHLD binding to ds-BSM
[7] = read-out: % Inhibition at [μM] [100], compound at 100 μM, inhibition of FmlHLD binding to ds-BSM
[8] = IC50, inhibition of FmlHLD binding to ds-BSM
[9] = IC50 (μM), Table 6, sulfonamides 3078-3090
[10] = mean with standard error of the mean, 100 µM
[11] = read-out: PI1 (percent inhibition), galactoside at 1 μM, mean with standard error of the mean
[12] = read-out: PI10 (percent inhibition), galactoside at 10 μM, mean with standard error of the mean
[13] = read-out: PI100 (percent inhibition), galactoside at 100 μM, mean with standard error of the mean

T1 sequence (P77588 25-182): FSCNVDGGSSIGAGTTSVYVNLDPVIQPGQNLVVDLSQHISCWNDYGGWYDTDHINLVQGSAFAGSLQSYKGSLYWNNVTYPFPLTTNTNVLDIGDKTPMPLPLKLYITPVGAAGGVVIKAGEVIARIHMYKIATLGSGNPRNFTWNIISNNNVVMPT

In the case of `CC(=O)N[C@H]1[C@H](Oc2ccccc2-c2cccc(OS(C)(=O)=O)c2)O[C@H](CO)[C@H](O)[C@@H]1O` [AM2078, 2′-(((2S,3R,4R,5R,6R)-3-acetamido-4,5-dihydroxy-6-(hydroxymethyl)tetrahydro-2H-pyran-2-yl)oxy)-[1,1′-biphenyl]-3-yl methanesulfonate], the “inhibitory potency against FmlH, in words” value (“inhibitory potency” for short) is reported as “equal or slightly reduced potency”, the IC50 [1] is reported as 0.89 µM and the inhibition at 0.1 µM [2] is reported as 2%. For the same molecule, the inhibition at 1 µM [3] was 32.5%, the inhibition at 0.1 µM [4] was 2% and the inhibition at 1 µM [5] was 32.5%.
With `CC(=O)N[C@H]1[C@H](Oc2ccc([N+](=O)[O-])cc2)O[C@H](CO)[C@@H](O)[C@@H]1O[C@@H]1O[C@H](CO)[C@H](O)[C@H](O)[C@H]1O` [Compound 34, p-nitrophenyl Gal-β1-3-GlcNAc, reference compound] the “PI100 (percent inhibition)” value (mean with standard error of the mean) was −3.6 ± 1.0%.
`Cc1ccccc1O[C@@H]1O[C@H](CO)[C@H](O)[C@H](O)[C@H]1O` [Compound 135b] gave an inhibition at 1 µM [3] of 1.81%, an inhibition at 10 µM [6] of 28.2% and an inhibition at 100 µM [7] of 87.3%.
In the case of `CS(=O)(=O)Nc1cccc(-c2ccccc2O[C@@H]2O[C@H](CO)[C@H](O)[C@H](O)[C@H]2O)c1` [AM2043, N-(2′-(((2S,3R,4S,5R,6R)-3,4,5-trihydroxy-6-(hydroxymethyl)tetrahydro-2H-pyran-2-yl)oxy)-[1,1′-biphenyl]-3-yl)methanesulfonamide], the “inhibitory potency” value is reported as “loss in activity relative to 29β-NAc”, the IC50 [1] is reported as 1.11 µM and the IC50 [8] is reported as 1.11 µM. For the same molecule, the inhibition at 0.1 µM [2] was 1.6%, the inhibition at 1 µM [3] was 49.8% and the inhibition at 0.1 µM [4] was 1.6%. The inhibition at 1 µM [5] was 49.8%.
With `COc1cccc(O[C@@H]2OC(CO)[C@H](O)[C@H](O)[C@@H]2NC(C)=O)c1-c1cccc(NS(C)(=O)=O)c1` (stereo partly drawn) [Compound 3083, N-((2S,3S,4R,5R)-4,5-dihydroxy-6-(hydroxymethyl)-2-((6-methoxy-3′-(methylsulfonamido)-[1,1′-biphenyl]-2-yl)oxy)tetrahydro-2H-pyran-3-yl)acetamide] the IC50 [9] was 0.15 µM.
With `Cc1cccc(O[C@@H]2O[C@H](CO)[C@H](O)[C@H](O)[C@H]2NC(=O)C(F)(F)F)c1-c1cccc(NS(C)(=O)=O)c1` [AM2129] the IC50 [8] was 0.105 µM.
Molecule `CC(C)(C)NC(=O)CN(C(=O)c1cccc2cccnc12)[C@@H]1O[C@H](CO)[C@H](O)[C@H](O)[C@H]1O` [AM1181, N-(2-(tert-butylamino)-2-oxoethyl)-N-((2R,3R,4S,5R,6R)-3,4,5-trihydroxy-6-(hydroxymethyl)tetrahydro-2H-pyran-2-yl)quinoline-8-carboxamide] has an inhibition at 1 µM [3] of 10.8% and an inhibition at 1 µM [5] of 10.8%.
`OC[C@H]1O[C@@H](Oc2ccccc2-c2ccccc2)[C@H](O)[C@@H](O)[C@H]1O` [Compound 28β, [1,1′-biphenyl]-2-yl α/β-D-galactopyranoside] was tested, and the “PI100 (percent inhibition)” value [10] was 91.1 ± 1.2%, the inhibition at 1 µM [11] was 8.1 ± 6% and the inhibition at 10 µM [12] was 31 ± 2.1%. For the same molecule, the inhibition at 100 µM [13] was 91%.
`CC(=O)N[C@H]1[C@H](Oc2ccc3ncccc3c2)O[C@H](CO)[C@H](O)[C@@H]1O` [AM1184, N-((2S,3R,4R,5R,6R)-4,5-dihydroxy-6-(hydroxymethyl)-2-(quinolin-6-yloxy)tetrahydro-2H-pyran-3-yl)acetamide] was tested, and the inhibition at 1 µM [3] was 7.56% and the inhibition at 1 µM [5] was 7.56%.
In the case of `OC[C@H]1O[C@@H](Oc2cccc3ccncc23)[C@H](O)[C@@H](O)[C@H]1O` [Compound 21β, 8-isoquinolinyl β-D-galactopyranoside], the “PI100 (percent inhibition)” value [10] is reported as 15.2 ± 7.1% and the inhibition at 100 µM [13] is reported as 15%.
With `COc1ccc(OS(C)(=O)=O)cc1-c1ccccc1O[C@@H]1O[C@H](CO)[C@H](O)[C@H](O)[C@H]1NC(C)=O` [AM2077, 2′-(((2S,3R,4R,5R,6R)-3-acetamido-4,5-dihydroxy-6-(hydroxymethyl)tetrahydro-2H-pyran-2-yl)oxy)-6-methoxy-[1,1′-biphenyl]-3-yl methanesulfonate] the “inhibitory potency” value was “equal or slightly reduced potency”, the IC50 [1] was 3.72 µM and the inhibition at 0.1 µM [2] was 2.5%. It also gave an inhibition at 1 µM [3] of 0%, an inhibition at 0.1 µM [4] of 2.5% and an inhibition at 1 µM [5] of 0%.
`CC(=O)N[C@@H]1[C@H](Oc2cccc(C(=O)OCc3ccccc3)c2-c2cccc(NS(C)(=O)=O)c2)OC(CO)[C@H](O)[C@@H]1O` (stereo partly drawn) [Compound 3081, Benzyl 6-(((2S,3S,4R,5R)-3-acetamido-4,5-dihydroxy-6-(hydroxymethyl)tetrahydro-2H-pyran-2-yl)oxy)-3′-(methylsulfonamido)-[1,1′-biphenyl]-2-carboxylate] gave an IC50 [9] of 0.18 µM.
For `CC(=O)N[C@H]1[C@H](Oc2ccccc2-c2cccc(O)c2)O[C@H](CO)[C@H](O)[C@@H]1O` [AM2021, N-((2S,3R,4R,5R,6R)-4,5-dihydroxy-2-((3′-hydroxy-[1,1′-biphenyl]-2-yl)oxy)-6-(hydroxymethyl)tetrahydro-2H-pyran-3-yl)acetamide], the “inhibitory potency” value was “equal or slightly reduced potency”, the IC50 [1] was 0.7 µM and the inhibition at 1 µM [3] was 17.7%. The inhibition at 1 µM [5] was 17.7%.
In the case of `CNC(=O)c1cccc(-c2ccccc2O[C@@H]2O[C@H](CO)[C@H](O)[C@H](O)[C@H]2NC(C)=O)c1` [AM1189, 2′-(((2S,3R,4R,5R,6R)-3-acetamido-4,5-dihydroxy-6-(hydroxymethyl)tetrahydro-2H-pyran-2-yl)oxy)-N-methyl-[1,1′-biphenyl]-3-carboxamide], the “inhibitory potency” value is reported as “equal or slightly reduced potency”, the IC50 [1] is reported as 3.36 µM and the inhibition at 1 µM [3] is reported as 12.3%. The inhibition at 1 µM [5] was 12.3%.
With `Nc1ccc(O[C@@H]2O[C@H](CO)[C@H](O)[C@H](O)[C@H]2O)cc1` [4-amino-phenyl Gal, reference compound] the inhibition at 10 µM [6] was 9.8% and the inhibition at 100 µM [7] was 65.1%.
For `Cc1ccccc1O[C@@H]1O[C@H](CO)[C@H](O)[C@H](O)[C@H]1O` [Compound 2β, 2-Methylphenyl α/β-D-Galactopyranoside], the “PI100 (percent inhibition)” value [10] was 87.3 ± 3.7%, the inhibition at 1 µM [11] was 1.8 ± 5.7% and the inhibition at 10 µM [12] was 28.2 ± 1.8%. For the same molecule, the inhibition at 100 µM [13] was 87%.
`CC(=O)N[C@H]1[C@H](Oc2cccc3ccncc23)O[C@H](CO)[C@H](O)[C@@H]1O` (stereo in doubt) [AM1186] was tested, and the inhibition at 1 µM [3] was 23.5% and the inhibition at 1 µM [5] was 23.5%.
With `N#Cc1ccccc1O[C@H]1O[C@H](CO)[C@H](O)[C@H](O)[C@H]1O` [Compound 137a] the inhibition at 100 µM [7] was 17.8%.
Work on `CC(C)S[C@@H]1O[C@H](CO)[C@H](O)[C@H](O)[C@H]1O` [36β-thio (IPTG), reference compound] yielded an inhibition at 100 µM [13] of 23.7 ± 5.3%.
For `CC(=O)N[C@H]1[C@H](Oc2ccccc2-c2cccc(CO)c2)O[C@H](CO)[C@H](O)[C@@H]1O` [AM2064, N-((2S,3R,4R,5R,6R)-4,5-dihydroxy-6-(hydroxymethyl)-2-((3′-(hydroxymethyl)-[1,1′-biphenyl]-2-yl)oxy)tetrahydro-2H-pyran-3-yl)acetamide], the “inhibitory potency” value was “equal or slightly reduced potency”, the IC50 [1] was 0.63 µM and the inhibition at 0.1 µM [2] was 2%. For the same molecule, the inhibition at 1 µM [3] was 38.9%, the inhibition at 0.1 µM [4] was 2% and the inhibition at 1 µM [5] was 38.9%.
`OC[C@H]1O[C@@H](Oc2c[nH]c3cc(Cl)ccc23)[C@H](O)[C@@H](O)[C@H]1O` [Salmon Gal, reference compound] gave an inhibition at 100 µM [7] of 41.2%.
